Assay results taken from patent publication US11492385B2, “Long-acting co-agonists of the glucagon and GLP-1 receptors” (Merck Sharp & Dohme Corp., priority 2015, dated 2022).
Starred links: 1 amine or outer side, 2 acyl side, 3 side chain; linkers in the order of their positions; H or OH if unused. Non-standard residues stand in square brackets, D forms with d. Residues, ends and D or L forms follow the SMILES beside them. Groups on a side chain read outwards from the residue. *: point of attachment. C20 diacid = O=C(O)CCCCCCCCCCCCCCCCCCC(=O)*; Phe(4-CH2NH2) = NCc1ccc(C[C@H](N)C(=O)O)cc1; C18 diacid = O=C(O)CCCCCCCCCCCCCCCCC(=O)*; C16 diacid = O=C(O)CCCCCCCCCCCCCCC(=O)*; γGlu = O=C(O)[C@H](CCC(=O)[*:2])N[*:1]; Met(O2) = CS(=O)(=O)CC[C@H](N)C(=O)O; AEEA = NCCOCCOCC(=O)O; Aib = CC(C)(N)C(=O)O

How the values were obtained:
[1] = molecular target: T1, human GLP1R (Homo sapiens, UniProt P43220); assay: cAMP activity assay, cells expressing human GLP1R; format: cell-based; conditions: cAMP production, assay buffer with or without 20% human serum (not stated which)
T1 construct: expressed in transfected cells; kept under Blasticidin and Hygromycin selection
T1 sequence (P43220 24-463): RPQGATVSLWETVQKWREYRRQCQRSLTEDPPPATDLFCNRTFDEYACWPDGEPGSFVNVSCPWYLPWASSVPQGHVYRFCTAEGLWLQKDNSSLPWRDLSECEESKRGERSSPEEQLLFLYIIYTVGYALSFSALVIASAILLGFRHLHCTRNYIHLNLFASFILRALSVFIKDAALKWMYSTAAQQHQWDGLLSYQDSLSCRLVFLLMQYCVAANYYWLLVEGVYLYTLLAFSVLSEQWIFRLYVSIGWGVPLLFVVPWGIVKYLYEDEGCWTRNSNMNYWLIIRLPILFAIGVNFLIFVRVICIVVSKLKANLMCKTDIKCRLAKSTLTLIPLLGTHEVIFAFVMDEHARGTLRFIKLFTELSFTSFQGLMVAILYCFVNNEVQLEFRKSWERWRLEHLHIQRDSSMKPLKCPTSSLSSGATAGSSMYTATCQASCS
Method in brief: (§1)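 Peptides as 10-point titrations from DMSO tested on cells expressing human GLP1R or GCGR. cAMP measured by luminescent kit after overnight room-temperature incubation in the dark. EC50 from four-parameter logistic fit; native GLP-1 and glucagon as controls.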

[2] = molecular target: T2, human GCGR (Homo sapiens, UniProt P47871); assay: cAMP activity assay, cells expressing human GCGR; format: cell-based; conditions: for EC50: cAMP production, cells expressing human GCGR, assay buffer with or without 20% human serum (not stated which), read-out: GCGR EC50 human; for hGCGR/hGLP1R (hTone): ratio of human GCGR EC50 to human GLP1R EC50
T2 construct: expressed in transfected cells; kept under Blasticidin and Hygromycin selection
T2 sequence (P47871 26-477): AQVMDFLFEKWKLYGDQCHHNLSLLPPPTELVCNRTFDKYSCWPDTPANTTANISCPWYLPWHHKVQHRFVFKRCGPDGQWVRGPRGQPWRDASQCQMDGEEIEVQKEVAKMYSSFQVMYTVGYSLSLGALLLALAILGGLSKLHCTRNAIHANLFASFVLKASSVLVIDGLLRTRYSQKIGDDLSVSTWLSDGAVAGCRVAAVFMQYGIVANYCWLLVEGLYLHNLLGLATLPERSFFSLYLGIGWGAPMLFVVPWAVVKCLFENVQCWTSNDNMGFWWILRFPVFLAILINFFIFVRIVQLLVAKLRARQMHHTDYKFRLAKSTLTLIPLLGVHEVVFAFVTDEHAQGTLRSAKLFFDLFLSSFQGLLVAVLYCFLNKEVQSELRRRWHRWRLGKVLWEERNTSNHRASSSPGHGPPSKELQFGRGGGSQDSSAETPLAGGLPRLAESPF
Method in brief: as §1

Compound	EC50 [1]	EC50 [2]	hGCGR/hGLP1R (hTone) [2]
CC(C)C[C@H](NC(=O)[C@H](Cc1c[nH]c2ccccc12)NC(=O)[C@H](CCC(N)=O)NC(=O)[C@@H](NC(=O)[C@H](Cc1ccccc1)NC(=O)[C@H](CC(=O)O)NC(=O)[C@H](CCC(N)=O)NC(=O)[C@H](C)NC(=O)[C@H](C)NC(=O)[C@H](CCCNC(=N)N)NC(=O)C(C)(C)NC(=O)[C@H](CC(=O)O)NC(=O)[C@H](CC(C)C)NC(=O)[C@H](Cc1ccc(O)cc1)NC(=O)[C@H](CCCCN)NC(=O)[C@H](CO)NC(=O)[C@H](CCCCNC(=O)COCCOCCNC(=O)COCCOCCNC(=O)CC[C@H](NC(=O)CCCCCCCCCCCCCCCCC(=O)O)C(=O)O)NC(=O)[C@H](CC(=O)O)NC(=O)[C@H](CO)NC(=O)[C@@H](NC(=O)[C@H](Cc1ccccc1)NC(=O)[C@@H](NC(=O)CNC(=O)[C@H](CCC(N)=O)NC(=O)C(C)(C)NC(=O)[C@@H](N)Cc1c[nH]cn1)[C@@H](C)O)[C@@H](C)O)C(C)C)C(=O)N[C@@H](CCS(C)(=O)=O)C(=O)N[C@@H](CC(=O)O)C(=O)N[C@H](C(N)=O)[C@@H](C)O [compound 4] (H-H[Aib]QGTFTSDK([AEEA-AEEA-γGlu-C18 diacid])SKYLD[Aib]RAAQDFVQWL[Met(O2)]DT-NH2; N-terminus assumed)	0.27 nM	1.42 nM	5.36
CC(C)C[C@H](NC(=O)[C@H](Cc1ccc(O)cc1)NC(=O)[C@H](CCCCN)NC(=O)[C@H](CO)NC(=O)[C@H](CCCCNC(=O)COCCOCCNC(=O)COCCOCCNC(=O)CC[C@H](NC(=O)CCCCCCCCCCCCCCCCC(=O)O)C(=O)O)NC(=O)[C@H](CC(=O)O)NC(=O)[C@H](CO)NC(=O)[C@@H](NC(=O)[C@H](Cc1ccccc1)NC(=O)[C@@H](NC(=O)CNC(=O)[C@H](CCC(N)=O)NC(=O)[C@@H](CO)NC(=O)[C@@H](N)Cc1c[nH]cn1)[C@@H](C)O)[C@@H](C)O)C(=O)N[C@@H](CC(=O)O)C(=O)N[C@@H](C)C(=O)N[C@@H](CCCNC(=N)N)C(=O)N[C@@H](C)C(=O)N[C@@H](C)C(=O)N[C@@H](CCC(N)=O)C(=O)N[C@@H](CC(=O)O)C(=O)N[C@@H](Cc1ccccc1)C(=O)N[C@H](C(=O)N[C@@H](CCC(N)=O)C(=O)N[C@@H](Cc1c[nH]c2ccccc12)C(=O)N[C@@H](CC(C)C)C(=O)N[C@@H](CC(C)C)C(=O)N[C@@H](CC(=O)O)C(=O)N[C@H](C(N)=O)[C@@H](C)O)C(C)C [compound 6] (H-H[dS]QGTFTSDK([AEEA-AEEA-γGlu-C18 diacid])SKYLDARAAQDFVQWLLDT-NH2)	1.37 nM	1.7 nM	1.24
CC(C)C[C@H](NC(=O)[C@H](Cc1ccc(O)cc1)NC(=O)[C@H](CCCCN)NC(=O)[C@H](CO)NC(=O)[C@H](Cc1ccc(O)cc1)NC(=O)[C@H](CC(=O)O)NC(=O)[C@H](CO)NC(=O)[C@@H](NC(=O)[C@H](Cc1ccccc1)NC(=O)[C@@H](NC(=O)CNC(=O)[C@H](CCC(N)=O)NC(=O)C(C)(C)NC(=O)[C@@H](N)Cc1c[nH]cn1)[C@@H](C)O)[C@@H](C)O)C(=O)N[C@@H](CC(=O)O)C(=O)N[C@@H](C)C(=O)N[C@@H](CCCNC(=N)N)C(=O)N[C@@H](C)C(=O)N[C@@H](C)C(=O)N[C@@H](CCC(N)=O)C(=O)N[C@@H](CCCCNC(=O)COCCOCCNC(=O)COCCOCCNC(=O)CC[C@H](NC(=O)CCCCCCCCCCCCCCCCCCC(=O)O)C(=O)O)C(=O)N[C@@H](Cc1ccccc1)C(=O)N[C@H](C(=O)N[C@@H](CCC(N)=O)C(=O)N[C@@H](Cc1c[nH]c2ccccc12)C(=O)N[C@@H](CC(C)C)C(=O)N[C@@H](CCS(C)(=O)=O)C(=O)N[C@@H](CC(=O)O)C(=O)N[C@H](C(N)=O)[C@@H](C)O)C(C)C [compound 44] (H-H[Aib]QGTFTSDYSKYLDARAAQK([AEEA-AEEA-γGlu-C20 diacid])FVQWL[Met(O2)]DT-NH2; N-terminus assumed)	0.24 nM	0.22 nM	0.92
CC(C)C[C@H](NC(=O)[C@H](Cc1ccc(O)cc1)NC(=O)[C@H](CCCCN)NC(=O)[C@H](CO)NC(=O)[C@H](Cc1ccc(O)cc1)NC(=O)[C@H](CC(=O)O)NC(=O)[C@H](CO)NC(=O)[C@@H](NC(=O)[C@H](Cc1ccccc1)NC(=O)[C@@H](NC(=O)CNC(=O)[C@H](CCC(N)=O)NC(=O)[C@@H](CO)NC(=O)[C@@H](N)Cc1c[nH]cn1)[C@@H](C)O)[C@@H](C)O)C(=O)N[C@@H](CC(=O)O)C(=O)N[C@@H](C)C(=O)N[C@@H](CCCNC(=N)N)C(=O)N[C@@H](C)C(=O)N[C@@H](C)C(=O)N[C@@H](CCCCNC(=O)COCCOCCNC(=O)COCCOCCNC(=O)CC[C@H](NC(=O)CCCCCCCCCCCCCCC(=O)O)C(=O)O)C(=O)N[C@@H](CC(=O)O)C(=O)N[C@@H](Cc1ccccc1)C(=O)N[C@H](C(=O)N[C@@H](CCC(N)=O)C(=O)N[C@@H](Cc1c[nH]c2ccccc12)C(=O)N[C@@H](CC(C)C)C(=O)N[C@@H](CCS(C)(=O)=O)C(=O)N[C@@H](CC(=O)O)C(=O)N[C@H](C(N)=O)[C@@H](C)O)C(C)C [compound 14] (H-H[dS]QGTFTSDYSKYLDARAAK([AEEA-AEEA-γGlu-C16 diacid])DFVQWL[Met(O2)]DT-NH2)	1.13 nM	0.04 nM	0.03
CC(C)C[C@H](NC(=O)[C@H](Cc1ccc(O)cc1)NC(=O)[C@H](CCCCN)NC(=O)[C@H](CO)NC(=O)[C@H](Cc1ccc(CNC(=O)COCCOCCNC(=O)COCCOCCNC(=O)CC[C@H](NC(=O)CCCCCCCCCCCCCCCCC(=O)O)C(=O)O)cc1)NC(=O)[C@H](CC(=O)O)NC(=O)[C@H](CO)NC(=O)[C@@H](NC(=O)[C@H](Cc1ccccc1)NC(=O)[C@@H](NC(=O)CNC(=O)[C@H](CCC(N)=O)NC(=O)C(C)(C)NC(=O)[C@@H](N)Cc1c[nH]cn1)[C@@H](C)O)[C@@H](C)O)C(=O)N[C@@H](CC(=O)O)C(=O)N[C@@H](C)C(=O)N[C@@H](CCCNC(=N)N)C(=O)N[C@@H](C)C(=O)N[C@@H](C)C(=O)N[C@@H](CCC(N)=O)C(=O)N[C@@H](CC(=O)O)C(=O)N[C@@H](Cc1ccccc1)C(=O)N[C@H](C(=O)N[C@@H](CCC(N)=O)C(=O)N[C@@H](Cc1c[nH]c2ccccc12)C(=O)N[C@@H](CC(C)C)C(=O)N[C@@H](CCS(C)(=O)=O)C(=O)N[C@@H](CC(=O)O)C(=O)N[C@H](C(N)=O)[C@@H](C)O)C(C)C [compound 28] (H-H[Aib]QGTFTSD[Phe(4-CH2NH2)]([AEEA-AEEA-γGlu-C18 diacid])SKYLDARAAQDFVQWL[Met(O2)]DT-NH2)	0.14 nM	0.43 nM	3.11
CC(C)C[C@H](NC(=O)[C@H](Cc1ccc(O)cc1)NC(=O)[C@H](Cc1ccc(CNC(=O)COCCOCCNC(=O)COCCOCCNC(=O)CC[C@H](NC(=O)CCCCCCCCCCCCCCC(=O)O)C(=O)O)cc1)NC(=O)[C@H](CO)NC(=O)[C@H](Cc1ccc(O)cc1)NC(=O)[C@H](CC(=O)O)NC(=O)[C@H](CO)NC(=O)[C@@H](NC(=O)[C@H](Cc1ccccc1)NC(=O)[C@@H](NC(=O)CNC(=O)[C@H](CCC(N)=O)NC(=O)[C@@H](CO)NC(=O)[C@@H](N)Cc1c[nH]cn1)[C@@H](C)O)[C@@H](C)O)C(=O)N[C@@H](CC(=O)O)C(=O)N[C@@H](CCC(=O)O)C(=O)N[C@@H](CCCNC(=N)N)C(=O)N[C@@H](C)C(=O)N[C@@H](C)C(=O)N[C@@H](CCC(N)=O)C(=O)N[C@@H](CC(=O)O)C(=O)N[C@@H](Cc1ccccc1)C(=O)N[C@H](C(=O)N[C@@H](CCC(N)=O)C(=O)N[C@@H](Cc1c[nH]c2ccccc12)C(=O)N[C@@H](CC(C)C)C(=O)N[C@@H](CCS(C)(=O)=O)C(=O)N[C@@H](CC(=O)O)C(=O)N[C@H](C(N)=O)[C@@H](C)O)C(C)C [compound 24] (H-H[dS]QGTFTSDYS[Phe(4-CH2NH2)]([AEEA-AEEA-γGlu-C16 diacid])YLDERAAQDFVQWL[Met(O2)]DT-NH2; N-terminus assumed)	0.37 nM	0.78 nM	4.76
CC(C)C[C@H](NC(=O)[C@H](Cc1ccc(O)cc1)NC(=O)[C@H](CCCCN)NC(=O)[C@H](CO)NC(=O)[C@H](Cc1ccc(CNC(=O)COCCOCCNC(=O)COCCOCCNC(=O)CC[C@H](NC(=O)CCCCCCCCCCCCCCC(=O)O)C(=O)O)cc1)NC(=O)[C@H](CC(=O)O)NC(=O)[C@H](CO)NC(=O)[C@@H](NC(=O)[C@H](Cc1ccccc1)NC(=O)[C@@H](NC(=O)CNC(=O)[C@H](CCC(N)=O)NC(=O)C(C)(C)NC(=O)[C@@H](N)Cc1c[nH]cn1)[C@@H](C)O)[C@@H](C)O)C(=O)N[C@@H](CC(=O)O)C(=O)N[C@@H](CCC(=O)O)C(=O)N[C@@H](CCCNC(=N)N)C(=O)N[C@@H](C)C(=O)N[C@@H](C)C(=O)N[C@@H](CCC(N)=O)C(=O)N[C@@H](CC(=O)O)C(=O)N[C@@H](Cc1ccccc1)C(=O)N[C@H](C(=O)N[C@@H](CCC(N)=O)C(=O)N[C@@H](Cc1c[nH]c2ccccc12)C(=O)N[C@@H](CC(C)C)C(=O)N[C@@H](CC(C)C)C(=O)N[C@@H](CCCCN)C(=O)N[C@H](C(N)=O)[C@@H](C)O)C(C)C [compound 8] (H-H[Aib]QGTFTSD[Phe(4-CH2NH2)]([AEEA-AEEA-γGlu-C16 diacid])SKYLDERAAQDFVQWLLKT-NH2)	0.03 nM	0.42 nM	15.26
